{"source": "patent EP2322149A1", "about": "“Methods and compositions for the treatment of ischemia” (Universidad del Pais Vasco, priority 2009, dated 2011)", "key": {"optic nerve": {"tested_on": "optic nerve", "experiment": "ATP release measurement (luciferin/luciferase) in isolated optic nerves after OGD", "design": "species or system rats", "conditions": "MFQ 1 µM, CBX 100 µM", "description": "(§1) ATP levels were measured using a Luciferin/Luciferase assay kit (Invitrogen) after 1h normoxia or OGD in oligodendrocyte cultures and in isolated optic nerves according to the manufacturer's instructions. The luminescence was measured with a luminometer Synergy-HT (BioTek) with an integration time of 3 sec. Because ATP was measured in the culture medium and in the solution bathing optic nerves, the concentration of ATP at the extracellular surface, near the vicinity of the receptor was underestimated (Joseph et al., 2003. J Biol Chem 278:23331-23342). The limit of ATP detection was 1 nM and luminescence was linear with increasing ATP concentrations to 1000 nM. The total amount of ATP was calculated according to standard curves and ATP release was expressed in percentage vs control.\n(§2) After 1h OGD at 37°C, the medium was replaced with fresh solution containing glucose and equilibrated with 95% O2, 5% CO2 and the nerves were incubated for another 2h at 37°C to simulate reperfusion."}, "[1]": {"target": "T1, P2X7 receptors in oligodendrocytes (Rattus norvegicus, UniProt Q64663)", "T1 construct": "ATP (1 mM)-evoked inward currents in whole-cell clamped oligodendrocytes at -70 mV; endogenous in cells; host or cells: primary rat optic nerve oligodendrocytes", "T1 sequence (Q64663 1-595)": "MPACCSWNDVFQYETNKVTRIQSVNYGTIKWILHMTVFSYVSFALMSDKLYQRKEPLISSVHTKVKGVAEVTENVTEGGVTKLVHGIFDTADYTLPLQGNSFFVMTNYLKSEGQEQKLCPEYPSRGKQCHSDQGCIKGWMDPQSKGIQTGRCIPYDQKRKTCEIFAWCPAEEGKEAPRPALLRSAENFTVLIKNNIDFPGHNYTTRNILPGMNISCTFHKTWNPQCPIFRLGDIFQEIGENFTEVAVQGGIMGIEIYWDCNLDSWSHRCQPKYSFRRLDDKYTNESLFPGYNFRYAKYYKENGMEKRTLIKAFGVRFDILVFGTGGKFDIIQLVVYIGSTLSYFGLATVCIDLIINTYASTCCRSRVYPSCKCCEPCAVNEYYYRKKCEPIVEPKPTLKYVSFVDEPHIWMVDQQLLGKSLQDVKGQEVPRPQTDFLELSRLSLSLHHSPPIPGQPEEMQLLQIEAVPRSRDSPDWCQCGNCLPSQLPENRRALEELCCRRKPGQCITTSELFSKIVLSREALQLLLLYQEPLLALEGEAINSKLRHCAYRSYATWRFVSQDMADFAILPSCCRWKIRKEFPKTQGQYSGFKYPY", "experiment": "ATP-evoked inward currents in whole-cell clamped oligodendrocytes", "type": "cell-based, Sprague-Dawley rats", "conditions": "-70 mV; CBX 20 µM, MFQ 1 nM", "description": "Primary cultures of oligodendrocytes derived from optic nerves of 12 day-old Sprague-Dawley rats were obtained as previously described (Matute et al., 1997 Proc Natl Acad Sci U S A 94:8830-8835.).Cells were maintained at 37°C and 5% CO2 in a chemically defined medium (Matute et al., 1997 Proc Natl Acad Sci U S A 94:8830-8835.). After 2-4 days in vitro, cultures were composed of at least 98% 04/Ga1C^+ cells. No microglial cells were detected in these cultures. […] Cell death was determined 24h later using calcein-AM (Invitrogen) as previously described (Matute et al., 1997 Proc Natl Acad Sci U S A 94:8830-8835.). […] Calcein was used to quantify the number of cells within the reading field. Fluorescence was measured as above and values were plotted as the percentage of DCFDA/calcein red-orange fluorescence versus control. The changes in mitochondrial membrane potential were monitored with 5,5',6,6'-tetrachloro-1,1',3,3'-tetraethylbenzimidazolcarbocyanine iodide (JC-1; Molecular Probes). […] The changes in the membrane potential were calculated as the red (emission at 590)/green (emission at 520) ratio in each condition and results were normalized to control.\nWhole cell recordings were performed at room temperature and at a holding membrane potential of -70 mV. […] Data were analyzed with Excel and Prism software."}, "[2]": {"tested_on": "cultured optic nerve oligodendrocytes", "experiment": "ATP release measurement (luciferin/luciferase) in oligodendrocyte cultures after OGD", "type": "cell-based, Sprague-Dawley rats", "conditions": "1h OGD in the presence of ARL67156; CBX 20 µM, FFA 100 µM, MFQ 1 nM (figure legend)", "description": "(§3) Primary cultures of oligodendrocytes derived from optic nerves of 12 day-old Sprague-Dawley rats were obtained as previously described (Matute et al., 1997 Proc Natl Acad Sci U S A 94:8830-8835.).Cells were maintained at 37°C and 5% CO2 in a chemically defined medium (Matute et al., 1997 Proc Natl Acad Sci U S A 94:8830-8835.). After 2-4 days in vitro, cultures were composed of at least 98% 04/Ga1C^+ cells. No microglial cells were detected in these cultures. […] Cell death was determined 24h later using calcein-AM (Invitrogen) as previously described (Matute et al., 1997 Proc Natl Acad Sci U S A 94:8830-8835.). Antagonists were present during in vitro ischaemia and during the next 24h incubation period. […] To assay the levels of reactive oxygen species (ROS), cells were loaded with 40 µM 2',7'- dichlorodihyfluoresceindiacetate (DCFDA; Invitrogen) and 1 µM calcein red-orange (Molecular Probes) immediately after OGD. Calcein was used to quantify the number of cells within the reading field. Fluorescence was measured as above and values were plotted as the percentage of DCFDA/calcein red-orange fluorescence versus control. The changes in mitochondrial membrane potential were monitored with 5,5',6,6'-tetrachloro-1,1',3,3'-tetraethylbenzimidazolcarbocyanine iodide (JC-1; Molecular Probes). Immediately after OGD, cells were loaded with JC-1 (3 µM) at 37°C for 30 min. The changes in the membrane potential were calculated as the red (emission at 590)/green (emission at 520) ratio in each condition and results were normalized to control.\nas §1"}, "[3]": {"tested_on": "optic nerve oligodendrocytes", "experiment": "Oxygen and glucose deprivation (OGD) cell death in oligodendrocyte cultures (calcein-AM)", "type": "cell-based, Sprague-Dawley rats", "conditions": "1h OGD, calcein 24h later; PPADS 100 µM, BBG 50 nM, CNQX 30 µM, APV 100 µM, apyrase 20 U/ml, ARL67156 100 µM, CBX 20 µM, FFA 100 µM, MFQ 1 nM", "description": "as §3"}, "optic nerves": {"tested_on": "optic nerves", "experiment": "Optic nerve ischaemia (OGD), tissue damage by LDH release", "design": "species or system rats", "conditions": "P28 rat optic nerves, 1h OGD + 2h reperfusion; PPADS 1 mM, BBG 50 nM, oATP 1 mM, apyrase 20 U/ml, MFQ 1 µM, CBX 100 µM, FFA 1 mM", "description": "as §2"}}, "note": "“Also recorded” adds a separate entry of the source.", "data": [{"smiles": "OC(c1cc(C(F)(F)F)nc2c(C(F)(F)F)cccc12)C1CCCCN1", "note": "[MFQ, [8-bis(trifluoromethyl)quinolin-4-yl]-[(2R)-piperidin-2-yl]methanol]", "values": [{"measurement": "ATP levels during OGD", "setting": "optic nerve", "value": "reduced"}, {"measurement": "ATP (1 mM)-evoked inward currents", "setting": "[1]", "value": "not reduced"}, {"measurement": "ATP levels after OGD", "setting": "[2]", "value": "significantly reduced"}, {"measurement": "OGD-induced oligodendrocyte cell death", "setting": "[3]", "value": "inhibited"}, {"measurement": "ischaemia-induced damage to optic nerves (LDH release)", "setting": "optic nerves", "value": "reduced; also recorded: attenuated"}]}]}
